Tests used:
Type in all cases: cell-based
MDA-MB-231 = experiment: CCK-8 tumor cell proliferation, MDA-MB-231; conditions: Homo sapiens, MDA-MB-231 cells, 72 hours
Protocol: (§1) Tumor cells (see Table 2 to Table 5) were inoculated in 96-well plates in complete culture medium (2000-3000 cells/well). After overnight incubation, the compounds with different concentrations (0.000508 μM-10 μM) were used to treat the cells separately for 72 hours. CCK-8 (Cell Counting Kit 8, Dojindo Laboratories, Kumamoto, Japan) experiment was used to evaluate cell proliferation. GraphPad Prism 5.0 software (La Jolla, CA) was used to calculate the half-maximal inhibitory concentration (IC50) values by fitting the concentration response curve. Each IC50 value was represented as an average value±SD.

MDA-MB-453 = experiment: CCK-8 tumor cell proliferation, MDA-MB-453; conditions: Homo sapiens, MDA-MB-453 cells, 72 hours
Protocol: as §1

BT-549 = experiment: CCK-8 tumor cell proliferation, BT-549; conditions: Homo sapiens, BT-549 cells, 72 hours
Protocol: as §1

Bel-7402 = experiment: CCK-8 tumor cell proliferation, Bel-7402; conditions: Homo sapiens, Bel-7402 cells, 72 hours
Protocol: as §1

HCC1937 = experiment: CCK-8 tumor cell proliferation, HCC1937; conditions: Homo sapiens, HCC1937 cells, 72 hours
Protocol: as §1

Huh7 = experiment: CCK-8 tumor cell proliferation, Huh7; conditions: Homo sapiens, Huh-7, Huh7 cells, 72 hours
Protocol: as §1

A549 = experiment: CCK-8 tumor cell proliferation, A549; conditions: Homo sapiens, A549 cells, 72 hours
Protocol: as §1

HCT116 = experiment: CCK-8 tumor cell proliferation, HCT116; conditions: Homo sapiens, HCT-116, HCT116 cells, 72 hours
Protocol: as §1

K562 = experiment: CCK-8 tumor cell proliferation, K562; conditions: Homo sapiens, K562 cells, 72 hours
Protocol: as §1

MIAPACA-2 = experiment: CCK-8 tumor cell proliferation, MIAPACA-2; conditions: Homo sapiens, MIA PaCa-2, MIAPACA-2 cells, 72 hours
Protocol: as §1

PANC-1 = experiment: CCK-8 tumor cell proliferation, PANC-1; conditions: Homo sapiens, PANC-1 cells, 72 hours
Protocol: as §1

BXPC-3 = experiment: CCK-8 tumor cell proliferation, BXPC-3; conditions: Homo sapiens, BXPC-3 cells, 72 hours
Protocol: as §1

AKT1 = target: T1, AKT1 (Homo sapiens, UniProt P31749); experiment: Western Blot, degradation of AKT1 protein in H1975-OR cells; conditions: 1000 nM, 24 hours, maximum degradation rate
T1 construct: AKT1, AKT2, and AKT3 proteins in H1975-OR cells; endogenous in cells; host or cells: H1975-OR (osimertinib-resistant H1975)
Method in brief: (§2)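 H1975-OR cells are Osimertinib-resistant H1975, adapted stepwise from 50 nM to 3 μM Osimertinib. Cells were treated with compound for 24 h, lysed, and immunoblotted with ECL detection. Band grayscale density was quantified.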

AKT2 = target: T2, AKT2 (Homo sapiens, UniProt P31751); experiment: Western Blot, degradation of AKT2 protein in H1975-OR cells; conditions: 1000 nM, 24 hours, maximum degradation rate
T2 construct: AKT1, AKT2, and AKT3 proteins in H1975-OR cells; endogenous in cells; host or cells: H1975-OR (osimertinib-resistant H1975)
Method in brief: as §2

AKT1/2 = experiment: Immunoblotting, AKT1/2 protein levels in other tumor cells (H1975, PC-9, H1299, A549); conditions: H1975, PC-9, H1299 and A549 cells, different concentrations, 24 hours
Protocol: (§3) Conventional Western Blot (immunoblotting) was used for detection, as follows: a certain number of H1975-OR cells were planted on a 96 well plate, adherent cultured in an incubator overnight, and added a certain concentration of compound to act for 24 hours. 1×SDS lysis buffer with protease and phosphatase inhibitors was used to lyse cells. Cell lysates were separated by SDS-PAGE and transferred to PVDF membrane. Then, at room temperature, the PCDF membrane was taken out and immersed in a sealing solution (5% BSA TBS solution containing 0.5% Tween-20) for sealing treatment for 1 hour, and then incubated with a specific primary antibody at 4° C. overnight. The imprints were washed with TBST and incubated with horseradish peroxidase (HRP) labeled secondary antibodies at room temperature for 2 hours. Finally, ECL plus fluorescence detection reagent (Thermo Scientific, Waltham, MA) was used for protein development, and the Amersham Imager 600 system (GE, America) was used for photography. The detection results were processed using ImageJ software to obtain the grayscale value G (Density).
(§4) Tumor cells ([…], and A549) was incubated with different concentrations of compound ZX-HYT-11 for 24 hours, and then analyzed the protein levels of AKT1/2/3 using immunoblotting method as described in Embodiment 105.

H1975 = experiment: CCK-8 tumor cell proliferation, H1975; conditions: Homo sapiens, NCI-H1975, H1975 cells, 72 hours
Method in brief: (§5)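 2000-3000 cells/well, o/n attachment, cpd 0.000508-10 μM × 72 h, CCK-8 readout, curve-fit IC50 (mean±SD).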

H1975OR = experiment: CCK-8 tumor cell proliferation, H1975OR; conditions: H1975OR cells (Osimertinib resistant), 72 hours
Method in brief: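 Osimertinib-resistant H1975 cells, selected by raising Osimertinib stepwise from 50 nM to 3 μM, were treated for 72 h with compound at 0.000508–10 μM. Proliferation was read by CCK-8, and IC50 came from fitting the concentration–response curve, given as mean ± SD.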

PC-9 = experiment: CCK-8 tumor cell proliferation, PC-9; conditions: Homo sapiens, PC-9 cells, 72 hours
Method in brief: as §5

A431 = experiment: CCK-8 tumor cell proliferation, A431; conditions: Homo sapiens, A-431, A431 cells, 72 hours
Method in brief: as §5

HCC827 = experiment: CCK-8 tumor cell proliferation, HCC827; conditions: Homo sapiens, HCC827 cells, 72 hours
Protocol: as §1

H1299 = experiment: CCK-8 tumor cell proliferation, H1299; conditions: Homo sapiens, NCI-H1299, H1299 cells, 72 hours
Protocol: as §1

AKT3 [1] = target: T3, AKT3 (Homo sapiens, UniProt Q9Y243); experiment: Western Blot, degradation of AKT3 protein in H1975-OR cells; design: endogenous in cells; host or cells: H1975-OR (osimertinib-resistant H1975); conditions: 1000 nM, 24 hours, maximum degradation rate
Method in brief: as §2

AKT3 [2] = target: T3, AKT3; experiment: Immunoblotting, AKT3 protein level in other tumor cells (H1975, PC-9, H1299, A549); design: analyzed the protein levels of AKT1/2/3 using immunoblotting method as described in Embodiment 105; endogenous in cells; host or cells: H1975, PC-9, H1299, A549; conditions: H1975, PC-9, H1299 and A549 cells, different concentrations, 24 hours
Protocol: as §3, §4

T3 sequence (Q9Y243 whole entry): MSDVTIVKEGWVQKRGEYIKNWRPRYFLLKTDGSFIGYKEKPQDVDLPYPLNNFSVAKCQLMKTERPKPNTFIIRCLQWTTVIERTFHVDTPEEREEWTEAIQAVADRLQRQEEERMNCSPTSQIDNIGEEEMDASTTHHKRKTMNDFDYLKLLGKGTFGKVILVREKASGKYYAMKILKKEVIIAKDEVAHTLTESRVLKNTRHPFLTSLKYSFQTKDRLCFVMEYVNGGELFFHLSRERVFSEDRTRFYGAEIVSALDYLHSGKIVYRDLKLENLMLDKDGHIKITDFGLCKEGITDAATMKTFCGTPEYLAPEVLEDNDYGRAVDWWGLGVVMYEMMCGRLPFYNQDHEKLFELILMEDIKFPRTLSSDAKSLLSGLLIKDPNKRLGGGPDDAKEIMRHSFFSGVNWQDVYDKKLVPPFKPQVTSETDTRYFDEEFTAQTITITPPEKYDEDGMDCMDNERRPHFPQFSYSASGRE
T1 sequence (P31749 whole entry): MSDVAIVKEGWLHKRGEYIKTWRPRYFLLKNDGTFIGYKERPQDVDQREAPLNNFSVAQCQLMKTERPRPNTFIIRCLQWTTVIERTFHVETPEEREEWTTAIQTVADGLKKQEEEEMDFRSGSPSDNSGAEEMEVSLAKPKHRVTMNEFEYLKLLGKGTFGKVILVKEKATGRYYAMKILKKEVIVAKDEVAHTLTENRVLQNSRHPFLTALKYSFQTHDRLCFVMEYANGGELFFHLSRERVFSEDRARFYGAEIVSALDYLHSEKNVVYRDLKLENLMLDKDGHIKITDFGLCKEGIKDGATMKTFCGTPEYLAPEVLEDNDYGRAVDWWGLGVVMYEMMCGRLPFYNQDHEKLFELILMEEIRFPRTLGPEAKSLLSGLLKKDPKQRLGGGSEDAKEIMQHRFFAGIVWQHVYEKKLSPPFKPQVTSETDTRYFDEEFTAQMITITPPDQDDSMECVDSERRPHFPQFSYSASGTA
T2 sequence (P31751 whole entry): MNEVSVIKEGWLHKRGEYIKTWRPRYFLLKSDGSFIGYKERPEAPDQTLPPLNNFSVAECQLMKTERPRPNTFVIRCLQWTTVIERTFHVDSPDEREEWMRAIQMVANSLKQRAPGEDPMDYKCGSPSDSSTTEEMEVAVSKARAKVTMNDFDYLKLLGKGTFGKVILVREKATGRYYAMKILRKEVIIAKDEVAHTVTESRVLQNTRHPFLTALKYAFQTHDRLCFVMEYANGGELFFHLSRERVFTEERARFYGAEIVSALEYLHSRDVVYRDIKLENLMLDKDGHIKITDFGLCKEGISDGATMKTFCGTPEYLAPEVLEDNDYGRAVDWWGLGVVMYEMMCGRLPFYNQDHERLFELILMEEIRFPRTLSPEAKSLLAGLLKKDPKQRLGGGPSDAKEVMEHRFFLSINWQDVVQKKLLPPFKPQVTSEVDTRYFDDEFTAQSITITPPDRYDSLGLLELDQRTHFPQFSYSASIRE

| SMILES | IC50 (MDA-MB-231) [µM] | IC50 (MDA-MB-453) [µM] | IC50 (BT-549) [µM] | IC50 (Bel-7402) [µM] | IC50 (HCC1937) [µM] | IC50 (Huh7) [µM] | IC50 (A549) [µM] | IC50 (HCT116) [µM] | IC50 (K562) [µM] | IC50 (MIAPACA-2) [µM] | IC50 (PANC-1) [µM] | IC50 (BXPC-3) [µM] | other results |
| --- | --- | --- | --- | --- | --- | --- | --- | --- | --- | --- | --- | --- | --- |
| COc1cc(N2CCN(C(=O)NC34CC5CC(CC(C5)C3)C4)CC2)ccc1Nc1ncc2c(C)cc(=O)n(-c3cccc(NC(=O)C4CC4)c3)c2n1 [ZX-HYT-64, N-((3S, 5S, 7S)-adamantan-1-yl)-4-(4-((8-(3-(cyclopropaneformamido)phenyl)-5-methyl-7-oxy-7,8-dihydropyridino [2,3-d]pyrimidin-2-yl)amino)-3-methoxyphenyl) piperazin-1-formamide] | 0.0152 | > 10 | 0.141 | 0.37 | 4 |  |  |  |  |  |  |  |  |
| COc1cc(N2CCN(CCNC(=O)CC34CC5CC(CC(C5)C3)C4)CC2)ccc1Nc1ncc2c(C)cc(=O)n(-c3cccc(NC(=O)C4CC4)c3)c2n1 [ZX-HYT-51, N-(3-(2-((4-(4-(2-(2-((3R, 5R, 7R)-adamantan-1-yl)acetylamino)ethyl)piperazin-1-yl)-2-methoxyphenyl))amino)-5-methyl-7-oxypyridino [2,3-d]pyrimidin-8 (7H)-yl) phenyl) cyclopropane formamide] | 0.145 | > 10 | 0.644 | > 3 | > 10 | > 10 | 0.629 | 0.0553 | 0.263 | 0.0513 | 0.125 | 0.333 |  |
| COc1cc(N2CCN(CCCCNC(=O)CC34CC5CC(CC(C5)C3)C4)CC2)ccc1Nc1ncc2c(C)cc(=O)n(-c3cccc(NC(=O)C4CC4)c3)c2n1 [ZX-HYT-52, N-(3-(2-((4-(4-(4-(2-((3R, 5R, 7R)-adamantan-1-yl)acetylamino)butyl)piperazin-1-yl)-2-methoxyphenyl))amino)-5-methyl-7-oxypyridino [2,3-d]pyrimidin-8 (7H)-yl) phenyl) cyclopropane formamide] | 1.99 | 2.5 | 0.478 | 0.568 | 0.002 to 0.005 | 1.35 | 0.833 | 0.104 | 0.25 | 0.0721 | 0.126 | 0.303 |  |
| COc1cc(N2CCN(C(=O)C34CC5CC(CC(C5)C3)C4)CC2)ccc1Nc1ncc2c(C)cc(=O)n(-c3cccc(NC(=O)C4CC4)c3)c2n1 [ZX-HYT-65, N-(3-(2-((4-(4-((3R, 5R, 7R)-adamantan-1-carbonyl)piperazin-1-yl)-2-methoxyphenyl)amino)-5-methyl-7-oxypyridino [2,3-d]pyrimidin-8 (7H)-yl)phenyl) cyclopropane formamide] | 0.104 | > 10 | > 10 | > 10 | > 10 | 0.335 | 1.17 | 0.0729 | 0.234 | 0.0511 | 0.179 | 0.447 |  |
| COc1cc(N2CCN(CCCCCCCCCCCCNC(=O)CC34CC5CC(CC(C5)C3)C4)CC2)ccc1Nc1ncc2c(C)cc(=O)n(-c3cccc(NC(=O)C4CC4)c3)c2n1 [ZX-HYT-11, N-(3-(2-((4-(4-(12-(2-(((3R, 5R, 7R)-adamantan-1-yl)acetylamino)dodecyl)piperazin-1-yl)-2-methoxyphenyl)amino)-5-methyl-7-oxypyridino [2,3-d]pyrimidin-8 (7H)-yl)phenyl)cyclopropane formamide] | 0.0294 | > 10 | > 10 | > 10 | > 10 | 0.686 |  |  |  |  |  |  | Dmax at 1 µM (AKT1): 0%; Dmax at 1 µM (AKT2): 15.3%; effect on AKT1/2 protein levels (AKT1/2): without affecting AKT1/2; IC50 (H1975): 2.39 ± 2 µM; IC50 (H1975OR): 0.007 ± 0.0006 µM; IC50 (PC-9): 0.0839 ± 0.0135 µM; IC50 (A431): 0.0093 ± 0.0004 µM; IC50 (HCC827): 0.0932 ± 0.014 µM; IC50 (H1299): 0.27 ± 0.0723 µM; Dmax at 1 µM (AKT3 [1]): 91.1%; degradation of AKT3 protein (AKT3 [2]): could selectively degrade AKT3 protein |
| COc1cc(N2CCN(C(=O)CC34CC5CC(CC(C5)C3)C4)CC2)ccc1Nc1ncc2c(C)cc(=O)n(-c3cccc(NC(=O)C4CC4)c3)c2n1 [ZX-HYT-50, N-(3-(2-((4-(4-(2-((3R, 5R, 7R)-adamantan-1-yl)acetyl)piperazin-1-yl)-2-methoxyphenyl)amino)-5-methyl-7-oxypyridino [2,3-d]pyrimidin-8 (7H)-yl)phenyl) cyclopropane formamide] | 0.155 | > 10 | > 10 | > 10 | > 10 | 0.632 | 0.668 | 0.0119 | 0.0293 | 0.00864 | 0.0137 | 0.0421 |  |
